In article PMC12299285, “Isolation and Identification of Secondary Metabolites in Rheum tataricum L.fil. Growing in Kazakhstan and Surveying of Its Anticancer Potential” (Molecules, 2025):
Read-outs that look alike come from different tables or passages of the source.

Assays:
[1] = system: C33 A (HPV-negative human cervical cancer cell line); assay: MTT cytotoxicity assay, C33 A cervical cancer cells; assay type: cell-based; details: read-out: Growth Inhibition of Cells (GI50 ± SEM) C33 A (HPV-Negative)
[2] = system: CaSki (HPV16-positive human cervical cancer cell line); assay: MTT cytotoxicity assay, CaSki cervical cancer cells; assay type: cell-based; details: 48 h incubation, three independent experiments, read-out: Growth Inhibition of Cells (GI50 ± SEM) CaSki (HPV-16)
[3] = system: HeLa (HPV18-positive human cervical cancer cell line); assay: MTT cytotoxicity assay, HeLa cervical cancer cells; assay type: cell-based; details: 48 h incubation, three independent experiments, read-out: Growth Inhibition of Cells (GI50 ± SEM) HeLa (HPV-18)
[4] = system: MCF-7 breast adenocarcinoma cells; assay: MTT cytotoxicity assay, MCF-7 breast adenocarcinoma cells; assay type: cell-based, human; details: three independent experiments, read-out: Growth Inhibition of Cells (GI50 ± SEM) MCF-7
[5] = system: DU-145 prostate cancer cell line; assay: MTT cytotoxicity assay, DU-145 prostate cancer cells; assay type: cell-based, human; details: three independent experiments, read-out: Growth Inhibition of Cells (GI50 ± SEM) DU-145
[6] = system: SNB-19 glioblastoma cell line; assay: MTT cytotoxicity assay, SNB-19 glioblastoma cells; assay type: cell-based, human; details: three independent experiments, read-out: Growth Inhibition of Cells (GI50 ± SEM) SNB-19
[7] = system: T98G glioblastoma cell line; assay: MTT cytotoxicity assay, T98G glioblastoma cells; assay type: cell-based, human; details: 48 h incubation, three independent experiments, read-out: Growth Inhibition of Cells (GI50 ± SEM) T98G
[8] = system: Normal epithelial VERO cells; assay: MTT cytotoxicity assay, normal epithelial VERO cells (non-cancer control); assay type: cell-based, African green monkey; details: 48 h incubation, three independent experiments, read-out: Growth Inhibition of Cells (GI50 ± SEM) VERO
[9] = design: method as in PMID 21725818; details: mice; cited from earlier work
[10] = design: method as in PMID 21725818; details: rats; cited from earlier work
activated macrophages = system: activated macrophages; design: method as in PMID 9810263; details: in vivo; cited from earlier work
[11] = Homo sapiens, MCF7, 48 h, 48 h incubation
[12] = Homo sapiens, DU-145, 48 h incubation
[13] = Homo sapiens, SNB-19, 48 h incubation
[14] = Chlorocebus sabaeus, Vero, 48 h
[15] = Homo sapiens, C-33-A, MTT, 48 h incubation, three independent experiments

| Compound | GI50 ([4]; 48 h incubation) [µM] | GI50 [8] [µM] | GI50 ([2]; Homo sapiens, Ca-Ski) [µM] | GI50 ([3]; Homo sapiens, HeLa) [µM] | GI50 [4, 11] [µM] | GI50 [5, 12] [µM] | GI50 [6, 13] [µM] | GI50 ([7]; Homo sapiens, T98G) [µM] | GI50 [8, 14] [µM] | further results |
| --- | --- | --- | --- | --- | --- | --- | --- | --- | --- | --- |
| 1-O-Galloyl-β-D-glucopyranose [Compound 6] | 31 ± 0.7 | > 100 |  |  |  |  |  |  |  | GI50 ([1]; MTT, 48 h incubation, three independent experiments): 27 ± 2.6 µM; GI50 [2]: 18 ± 1.4 µM; GI50 [3]: 29 ± 2.4 µM; GI50 ([5]; 48 h incubation): 67 ± 6.4 µM; GI50 ([6]; 48 h incubation): 26 ± 1.2 µM; GI50 [7]: 21 ± 0.8 µM |
| C[C@H](CCc1ccc(O)cc1)O[C@@H]1O[C@H](CO)[C@@H](O)[C@H](O)[C@H]1O [Compound 1, (R)-4-(4-Hydroxyphenyl)-2-butanol 2-β-D-glucopyranoside] |  | > 100 | 12 ± 0.7 | 16 ± 0.8 | 10 ± 1.8 | 21 ± 2.3 | 23 ± 4.1 | 29 ± 2.5 | > 83 | GI50 ([1]; Homo sapiens, C-33-A, 48 h): 27 ± 1.4 µM; analgesic actions [9]: significant analgesic actions; anti-inflammatory actions [10]: anti-inflammatory actions |
| C[C@@H](CCc1ccc(O)cc1)O[C@@H]1O[C@H](CO)[C@@H](O)[C@H](O)[C@H]1O [Compound 3, (S)-4-(4-Hydroxyphenyl)-2-butanol 2-β-D-glucopyranoside] |  |  |  |  |  |  |  |  |  | NO production by activated macrophages (activated macrophages): suppressed NO production |
| C[C@@H](O)CCc1ccc(O)cc1 [Compound 4, (R)-4-(4-Hydroxyphenyl)-2-butanol] |  | > 100 | 10 ± 0.6 | 29 ± 0.7 | 11 ± 1.4 | 21 ± 0.8 | 15 ± 0.9 | 18 ± 1.1 | > 83 | GI50 [1, 15]: 28 ± 0.5 µM |
| C[C@H](O)CCc1ccc(O)cc1 [Compound 5, (S)-4-(4-Hydroxyphenyl)-2-butanol] |  |  |  |  |  |  |  |  |  | NO production by activated macrophages (activated macrophages): suppressed NO production |
| CC(=O)CCc1ccc(O)cc1 [Compound 9, 4-(4-Hydroxyphenyl)butan-2-one] |  | > 100 | 20 ± 1.5 | 23 ± 3.7 | 21 ± 2.1 | 60 ± 1.7 | 33 ± 1.8 | 19 ± 0.9 | > 83 | GI50 [1, 15]: 19 ± 2.2 µM |
| COc1ccc(C=Cc2cc(O)cc(OC3OC(CO)C(O)C(O)C3O)c2)cc1 [Compound 11, 3,5-Dihydroxy-4′-methoxystilbene-3-O-β-D-glucopyranoside] | 8 ± 1.8 | 92 ± 7.9 |  | 17 ± 0.9 | 7 to 8 |  | 13 ± 1.1 | 18 ± 3.5 | > 83 |  |
| OC[C@H]1O[C@@H](Oc2ccc(/C=C/c3cc(O)cc(O)c3)cc2)[C@H](O)[C@@H](O)[C@@H]1O [Compound 12, (E)-resveratrol 4′-O-β-D-glucopyranoside] | 7 ± 1.2 | 98 ± 4.8 |  | 18 ± 1.6 | 7 to 8 |  | 9.2 ± 0.8 | 21 ± 1.7 | > 83 |  |
| COc1cccc2c1C(=O)c1c(O)c3c(c(O)c1C2=O)C[C@@](O)(C(=O)CO)C[C@@H]3O[C@H]1C[C@H](N)[C@H](O)[C@H](C)O1 [Doxorubicin, reference compound] |  |  | 10.1 ± 0.7 | 6.1 ± 0.7 |  | 15 ± 0.3 | 7.6 ± 0.7 | 13 ± 0.5 |  | GI50 ([4]; Homo sapiens, MCF7, 48 h incubation): 5.2 ± 0.8 µM; GI50 ([8]; Chlorocebus sabaeus, Vero): 8 ± 1.8 µM |
